What is called EC50 is the concentration needed to bring the measured effect to its halfway point. The term CC50 denotes the concentration that lowers cell viability or growth by half. High values mean better tolerance by the cells, low ones harm at low concentration.

The record followed here is patent US20240343754A1, “7-SUBSTITUTED 7-DEAZAADENINE-CONTAINING 2',3'-CYCLIC DINUCLEOTIDES” (USTAV ORGANICKE CHEMIE A BIOCHEMIE AV CR, V. V. I., priority 2021, published 2024).

One data set deals with wt hSTING (Homo sapiens, UniProt Q86WV6). The experiment in a line: Standard 293T reporter cell-based assay (IRF-3 dependent firefly luciferase reporter). The note with it: read-out: Standard assay EC50; 293T reporter cells expressing wt hSTING; 7 h incubation; mean of three independent experiments in triplicates, SD <50%. In general terms: In a reporter assay the amount or activity of a reporter protein is the signal.
Sequence of wt hSTING (Q86WV6 whole entry H232R): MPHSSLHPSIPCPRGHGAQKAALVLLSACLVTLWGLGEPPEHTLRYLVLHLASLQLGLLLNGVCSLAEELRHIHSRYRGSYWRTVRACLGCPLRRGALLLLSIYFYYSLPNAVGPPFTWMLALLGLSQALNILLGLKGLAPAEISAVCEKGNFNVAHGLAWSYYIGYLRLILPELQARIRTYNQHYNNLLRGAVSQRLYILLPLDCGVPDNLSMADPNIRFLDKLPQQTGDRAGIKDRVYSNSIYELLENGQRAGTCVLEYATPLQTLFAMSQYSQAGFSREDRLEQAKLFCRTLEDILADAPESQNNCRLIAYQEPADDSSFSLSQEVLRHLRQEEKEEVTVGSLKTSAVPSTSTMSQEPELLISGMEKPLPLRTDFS

A short description of data set [1]: Cytotoxic effect on PBMCs (CellTiter-Glo Luminescent Cell Viability Assay). In kind it is cell-based. The note with it: human, 16 h incubation, mean from three different PBMC donors. As for the experimental part: Briefly, buffy coats were obtained from the Institute of Hematology and Blood Transfusion (Prague, Czech Republic). Informed written consent was signed by each volunteer. Isolation of PBMCs was performed on Ficoll density gradient centrifugation (Ficoll Paque Plus, GE Healthcare, USA) in SepMate tubes (SepMate PBMC Isolation Tubes, Stemcell Technologies, Canada). Obtained PBMCs were washed using PBS with 2 mM EDTA, and then seeded onto 96-well U-shape plates at density 500,000 cells per well in RPMI 1640 media with 10% (v/v) heat inactivated FBS. Serially diluted CDNs were added to cells and cells were incubated for 16 h (37° C., 5% CO2). After incubation, medium was collected to determine levels of INFα and INFγ using ProcartaPlex Assays and MAGPIX System (Merck, Germany) according to the manufacturer's instructions. Cytotoxic effect of CDNs on PBMCs was determined using CellTiter-Glo® Luminescent Cell Viability Assay (Promega Corporation, USA) according to manufacturer's instruction.
On the technique in general: Cellular ATP, detected with luciferase, serves as a proxy for viable cell number.

Data set [2] relates to Peripheral blood mononuclear cells (PBMC). The data set can be described thus: PBMC assay: induction of cytokines INFα and INFγ. The note with it: Homo sapiens, PBMCs, 16 h incubation, mean from three different PBMC donors. The class given is cell-based.
The mark [3] stands for this setting: read-out: PBMC assay EC50 INF α.
Setting [4] is: read-out: PBMC assay EC50 INF γ.

Molecules are shown by their SMILES. Like-named read-outs stand apart in the source and are kept apart here.

Method for wt hSTING: Briefly, the day before testing cells were seeded onto 96-well white plates at density 250,000 cells per cm^2 in DMEM High glucose medium supplemented with 10% (v/v) heat inactivated fetal bovine albumin (FBS). The next day medium was removed, and cell were incubated for 7 h (37° C., 5% CO2) with serial dilution of compounds in medium. After incubation, Bright-Glo Luciferase Assay System reagent was added to cells and luminescence readout was performed on SPARK instrument (Tecan, Austria). EC50 values were determined using in software Prism (GraphPad, USA).

Regarding `Nc1nc2c(ncn2[C@@H]2O[C@@H]3COP(=O)(O)O[C@H]4[C@@H](O)[C@H](n5cc(-c6ccccc6)c6c(N)ncnc65)O[C@@H]4COP(=O)(O)O[C@@H]2[C@@H]3O)c(=O)[nH]1` [Compound 1b, 2-amino-9-((5R,7R,8R,12aR,14R,15R,15aS,16R)-14-(4-amino-5-phenyl-7H-pyrrolo[2,3-d]pyrimidin-7-yl)-2,10,15,16-tetrahydroxy-2,10-dioxidooctahydro-12H-5,8-methanofuro[3,2-l][1,3,6,9,11]pentaoxa[2,10]diphosphacyclotetradecin-7-yl)-1,9-dihydro-6H-purin-6-one], the EC50 on wt hSTING was 40.7 µM. Also, the CC50 at 16 h in data set [1] was above 200 µM.

Regarding `Nc1nc2c(ncn2[C@@H]2O[C@@H]3COP(=O)(O)O[C@H]4[C@@H](O)[C@H](n5cc(-c6ccc7ccccc7c6)c6c(N)ncnc65)O[C@@H]4COP(=O)(O)O[C@@H]2[C@@H]3O)c(=O)[nH]1` [Compound 1c, 2-amino-9-((5R,7R,8R,12aR,14R,15R,15aS,16R)-14-(4-amino-5-(naphthalen-2-yl)-7H-pyrrolo[2,3-d]pyrimidin-7-yl)-2,10,15,16-tetrahydroxy-2,10-dioxidooctahydro-12H-5,8-methanofuro[3,2-l][1,3,6,9,11]pentaoxa[2,10]diphosphacyclotetradecin-7-yl)-1,9-dihydro-6H-purin-6-one], the EC50 at wt hSTING amounted to 7.63 µM. Moreover, in data set [1], the half-maximal cytotoxic concentration (CC50) at 16 h is above 200 µM.

As to `Nc1nc2c(ncn2[C@@H]2O[C@@H]3COP(=O)(O)O[C@H]4[C@@H](O)[C@H](n5cc(-c6cccc7ccccc67)c6c(N)ncnc65)O[C@@H]4COP(=O)(O)O[C@@H]2[C@@H]3O)c(=O)[nH]1` [Compound 1d, 2-amino-9-((5R,7R,8R,12aR,14R,15R,15aS,16R)-14-(4-amino-5-(naphthalen-1-yl)-7H-pyrrolo[2,3-d]pyrimidin-7-yl)-2,10,15,16-tetrahydroxy-2,10-dioxidooctahydro-12H-5,8-methanofuro[3,2-l][1,3,6,9,11]pentaoxa[2,10]diphosphacyclotetradecin-7-yl)-1,9-dihydro-6H-purin-6-one], the EC50 at wt hSTING is 42.5 µM. Also, the CC50 at 16 h in data set [1] is above 200 µM.

As to `Nc1nc2c(ncn2[C@@H]2O[C@@H]3COP(=O)(O)O[C@H]4[C@@H](O)[C@H](n5cc(-c6cc7ccccc7c7ccccc67)c6c(N)ncnc65)O[C@@H]4COP(=O)(O)O[C@@H]2[C@@H]3O)c(=O)[nH]1` [Compound 1e, 2-amino-9-((5R,7R,8R,12aR,14R,15R,15aS,16R)-14-(4-amino-5-(phenanthren-9-yl)-7H-pyrrolo[2,3-d]pyrimidin-7-yl)-2,10,15,16-tetrahydroxy-2,10-dioxidooctahydro-12H-5,8-methanofuro[3,2-l][1,3,6,9,11]pentaoxa[2,10]diphosphacyclotetradecin-7-yl)-1,9-dihydro-6H-purin-6-one], at wt hSTING, the EC50 was found to be 65.5 µM. This compound also came in with a CC50 at 16 h in data set [1] above 200 µM.

Regarding `Nc1nc2c(ncn2[C@@H]2O[C@@H]3COP(=O)(O)O[C@H]4[C@@H](O)[C@H](n5cc(-c6ccc(-c7ccccc7)cc6)c6c(N)ncnc65)O[C@@H]4COP(=O)(O)O[C@@H]2[C@@H]3O)c(=O)[nH]1` [Compound 1f, 9-((5R,7R,8R,12aR,14R,15R,15aS,16R)-14-(5-([1,1′-biphenyl]-4-yl)-4-amino-7H-pyrrolo[2,3-d]pyrimidin-7-yl)-2,10,15,16-tetrahydroxy-2,10-dioxidooctahydro-12H-5,8-methanofuro[3,2-l][1,3,6,9,11]pentaoxa[2,10]diphosphacyclotetradecin-7-yl)-2-amino-1,9-dihydro-6H-purin-6-one], the EC50 was 7.4 µM in data set [2] (setting [3]), 2 µM in data set [2] (setting [4]) and 2.95 µM at wt hSTING. The compound also displayed a CC50 at 16 h in data set [1] above 200 µM.

As for `Nc1nc2c(ncn2[C@@H]2O[C@@H]3COP(=O)(O)O[C@H]4[C@@H](O)[C@H](n5cc(-c6ccc(-c7ccc8ccccc8c7)cc6)c6c(N)ncnc65)O[C@@H]4COP(=O)(O)O[C@@H]2[C@@H]3O)c(=O)[nH]1` [Compound 1g, 2-amino-9-((5R,7R,8R,12aR,14R,15R,15aS,16R)-14-(4-amino-5-(4-(naphthalen-2-yl)phenyl)-7H-pyrrolo[2,3-d]pyrimidin-7-yl)-2,10,15,16-tetrahydroxy-2,10-dioxidooctahydro-12H-5,8-methanofuro[3,2-l][1,3,6,9,11]pentaoxa[2,10]diphosphacyclotetradecin-7-yl)-1,9-dihydro-6H-purin-6-one], the EC50 in data set [2] (setting [3]) is 5.1 µM; in data set [2] (setting [4]) it was 1.8 µM; on wt hSTING, 3.06 µM. In data set [1], this compound returned a CC50 at 16 h above 200 µM.

With `Nc1nc2c(ncn2[C@@H]2O[C@@H]3COP(=O)(O)O[C@H]4[C@@H](O)[C@H](n5cc(-c6ccc(COc7cccc8ccccc78)cc6)c6c(N)ncnc65)O[C@@H]4COP(=O)(O)O[C@@H]2[C@@H]3O)c(=O)[nH]1` [Compound 1h, 2-amino-9-((5R,7R,8R,12aR,14R,15R,15aS,16R)-14-(4-amino-5-(4-((naphthalen-1-yloxy)methyl)phenyl)-7H-pyrrolo[2,3-d]pyrimidin-7-yl)-2,10,15,16-tetrahydroxy-2,10-dioxidooctahydro-12H-5,8-methanofuro[3,2-l][1,3,6,9,11]pentaoxa[2,10]diphosphacyclotetradecin-7-yl)-1,9-dihydro-6H-purin-6-one], the EC50 in data set [2] (setting [3]) came out at 1.97 µM; in data set [2] (setting [4]) it was 1.08 µM; on wt hSTING, 2.58 µM. This compound had a CC50 at 16 h in data set [1] above 200 µM.

Take `Nc1nc2c(ncn2[C@@H]2O[C@@H]3COP(=O)(O)O[C@H]4[C@@H](O)[C@H](n5cc(-c6cc7ccccc7o6)c6c(N)ncnc65)O[C@@H]4COP(=O)(O)O[C@@H]2[C@@H]3O)c(=O)[nH]1` [Compound 1k, 2-amino-9-((5R,7R,8R,12aR,14R,15R,15aS,16R)-14-(4-amino-5-(benzo[b]furan-2-yl)-7H-pyrrolo[2,3-d]pyrimidin-7-yl)-2,10,15,16-tetrahydroxy-2,10-dioxidooctahydro-12H-5,8-methanofuro[3,2-l][1,3,6,9,11]pentaoxa[2,10]diphosphacyclotetradecin-7-yl)-1,9-dihydro-6H-purin-6-one]: the EC50 stood at 13.8 µM in data set [2] (setting [3]), 8.48 µM in data set [2] (setting [4]) and 10.9 µM at wt hSTING. In data set [1], this compound gave a CC50 at 16 h above 200 µM.

Turning to `Nc1nc2c(ncn2[C@@H]2O[C@@H]3COP(=O)(O)O[C@H]4[C@@H](O)[C@H](n5cc(-c6cc7ccccc7s6)c6c(N)ncnc65)O[C@@H]4COP(=O)(O)O[C@@H]2[C@@H]3O)c(=O)[nH]1` [Compound 1l, 2-amino-9-((5R,7R,8R,12aR,14R,15R,15aS,16R)-14-(4-amino-5-(benzo[b]thiophen-2-yl)-7H-pyrrolo[2,3-d]pyrimidin-7-yl)-2,10,15,16-tetrahydroxy-2,10-dioxidooctahydro-12H-5,8-methanofuro[3,2-l][1,3,6,9,11]pentaoxa[2,10]diphosphacyclotetradecin-7-yl)-1,9-dihydro-6H-purin-6-one], the EC50 in data set [2] (setting [3]) is 47.6 µM; in data set [2] (setting [4]), 47.5 µM; at wt hSTING, 8.69 µM. Also, in data set [1], the CC50 at 16 h was above 200 µM.

Turning to `Nc1nc2c(ncn2[C@@H]2O[C@@H]3COP(=O)(O)O[C@H]4[C@@H](O)[C@H](n5cc(-c6cccc7c6oc6ccccc67)c6c(N)ncnc65)O[C@@H]4COP(=O)(O)O[C@@H]2[C@@H]3O)c(=O)[nH]1` [Compound 1m, 2-amino-9-((5R,7R,8R,12aR,14R,15R,15aS,16R)-14-(4-amino-5-(dibenzo[b,d]furan-4-yl)-7H-pyrrolo[2,3-d]pyrimidin-7-yl)-2,10,15,16-tetrahydroxy-2,10-dioxidooctahydro-12H-5,8-methanofuro[3,2-l][1,3,6,9,11]pentaoxa[2,10]diphosphacyclotetradecin-7-yl)-1,9-dihydro-6H-purin-6-one], at wt hSTING, the EC50 turned out to be 19.1 µM. Further, the CC50 at 16 h in data set [1] was above 200 µM.
